Test results published in article PMC9890698 (BMC Biology, 2023).
Where “and” joins values, the source holds several entries; their conditions need not be identical. Identical values can stand only once.

Legend:
[1] = target: T1, Human P2Y1-R (Homo sapiens, UniProt P47900); assay: Gαq protein activation BRET2 assay (Gαq-RLuc8/GFP2-Gγ2/Gβ1) in HEK293T cells expressing P2Y1-R; format: cell-based; design: ADP-modulated BRET / MRS2179-modulated BRET: unit not given here; details: for G protein signaling, Ligand-modulated BRET (% of maximum MRS2179 mean value): Figure 4a, individual replicates; for EC50 / pEC50 ± s.e.m. / Emax ± s.e.m.: G protein signaling, Fig. 4a; for Emax ± s.e.m.: normalized to the mean value of maximal MRS2179 response, in %; for Behaviour on P2Y1-R-dependent constitutive Gαq protein activation: HEK293T cells
T1 construct: expressed in transfected cells; host or cells: HEK293T/17
Source text: As previously described, using a BRET^2 (bioluminescence resonance energy transfer)-based assay, we directly monitored the basal Gαq protein activation by measuring the interaction between Gαq and Gγ2 subunits of the Gαqβ1γ2 heterotrimer complex. Indeed, this assay is based on the non-radiative transfer between the Renilla reniformis luciferase (RLuc8) energy donor fused to the Gαq protein subunit and the fluorescent GFP2 energy acceptor fused to Gγ2 protein subunit (Fig. 1a). […] By contrast, ligand-independent constitutive receptor activation or agonist-induced receptor activation will promote Gαq/Gγ2 subunit dissociation, thereby leading to a decrease of the basal BRET signal (Fig. 1a). […] To preclude any P2Y1-R activation by a passive release of ADP by HEK293T cells, we performed similar experiments in the presence of high concentration of apyrase (0.2U/mL) to degrade any trace of ADP in the medium (Additional File 2: Fig. S2a). Under these conditions, P2Y1-R expression still induces a marked and significant decrease of the basal BRET signal compared to control cells (pcDNA3.1), thereby supporting a P2Y1-R-dependent constitutive activation of Gαq protein. […] Of note, because P2Y1-R and AT1-R were respectively Myc- and HA-tagged and were thus detected using different primary antibodies, their expression at the cell surface cannot be compared between each other’s.
Human P2Y1-R (NCBI Reference Sequence: NM_002563.2) and P2Y12-R (NCBI Reference Sequence: NM_022788.3) were fused to double Myc epitope and rat AT1-R (NCBI Reference Sequence: NM_030985.4) to HA tag in N-terminus extracellular region. Alternatively, receptors were also fused to Venus tag in C-terminus intracellular region. Plasmids encoding Gαq-RLuc8, GFP2-Gγ2 and untagged Gβ1 were previously described. ADP was purchased from Sigma-Aldrich/Merck (Darmstadt, Germany). […] The Gq inhibitor (FR900359) was kindly supplied by Evi Kostenis (University of Bonn. Germany).
G protein activation and β-arrestin 2 recruitment were performed as previously described. Briefly, vectors encoding receptors, Gαq-RLuc8, GFP2-Gγ2, Gβ1, or β-arrestin 2 were transiently cotransfected into HEK293T/17 cells as indicated in the figure legends. Forty-eight hours after transfection, cells were washed and resuspended in PBS containing 0.1% (w/v) glucose at room temperature and then distributed (80 μg proteins/well) in a 96-well microplate (PerkinElmer). For G protein activation experiments (BRET^2), cells were incubated in the absence (basal BRET signal) or in the presence of ligand for 1 minute. BRET signal between RLuc8 and GFP2 was measured after addition of the luciferase substrate coelenterazine 400a (5 μM). For β-arrestin 2 recruitment (BRET^1), cells were stimulated with ligands for 5 or 15 min. BRET signal was recorded after incubation with coelenterazine h (5 μM) for 8 min. For kinetics studies, BRET signal between RLuc and Venus was recorded at 20-s intervals at basal state for the 2 first minutes and then for 5 min after ligand injection. For saturation curves (BRET^1), the expression level of Venus- or RLuc-tagged protein was determined by direct measurement of total fluorescence and luminescence respectively. Total fluorescence was first measured with an excitation filter at 485 nm and an emission filter at 520 nm. Then, the same sample was incubated for 8 minutes with 5 μM coelenterazine h and the total luminescence was measured. BRET^2 and BRET^1 readings were collected using a modified Infinite F500 (Tecan Group Ltd). The BRET^2 signal was calculated by the ratio of emission of GFP2 (510–540 nm) to RLuc8 (370–450 nm) and the BRET^1 signal by the ratio of emission of Venus (520–570 nm) to RLuc (370–480 nm). […]

[2] = target: T1, Human P2Y1-R; assay: IP1 accumulation assay (HTRF) in HEK293T cells expressing P2Y1-R; format: cell-based; details: ADP 100 μM, MRS2179 10 μM, Gq inhibitor 100 nM, 2 h, result in words
Source text: Since Gαq protein activation is known to induce PLC activation leading to IP3 and subsequent cytosolic calcium release, we analyzed the constitutive Gαq-dependent P2Y1-R signaling by quantifying intracellular inositol monophosphate (IP1) using a monoclonal antibody-based competitive ELISA. IP1 is a downstream metabolite of IP3 that accumulates in cells following Gαq protein-coupled receptor activation, making it an ideal readout for Gαq protein-dependent signaling pathways.

[3] = test system: washed murine platelets (P2Y1-R/Gαq signaling); assay: IP1 accumulation assay (HTRF) in washed murine platelets; format: cell-based, mouse; details: washed murine platelets, ADP 100 μM, MRS2179 10 μM, Gq inhibitor 100 nM, 2 h, apyrase 0.02 U/mL, result in words
Protocol: As performed in HEK293T cells, we thus quantified intracellular IP1 levels to monitor Gαq protein-dependent signaling pathways.
Platelet-rich plasma (PRP) was obtained by mixing blood with 1 volume of modified Hepes Tyrode’s buffer (137 mM NaCl, 2 mM KCl, 12 mM NaHCO3, 0.3 mM NaH2PO4, 1 mM MgCl2, 2 mM CaCl2, 5.5 mM glucose, 5 mM HEPES, and 0.35% (w/v) BSA, pH 6.7) followed by a centrifugation at 150 g for 2 min at 37 °C. Then, platelets were pelleted by centrifugation at 1000 g for 4 min, resuspended in modified Hepes Tyrode’s buffer (pH 7.4), adjusted to 3.10^8 platelets/mL in the presence of 0.02 U/mL of apyrase and 10 μM indomethacin and rested for 45 minutes at 37°C before platelet stimulation. PGI2 (0.5 μM) was added before centrifugation steps to avoid platelet activation.
Quantification of intracellular IP1 was performed using the HTRF (Homogeneous Time Resolved Fluorescence) IP1 competitive immunoassay (IP-One Tb kit. Cisbio. France) according to the manufacturer’s instructions. Briefly, 20,000 HEK293T/17 cells or 3.10^6 platelets were distributed in a 384-well white microplate (Greiner) and incubated with the indicated molecules for 30 min or 2 h at 37 °C in the presence of 50 mM of LiCl to prevent IP1 degradation. After addition of d2-labeled IP1 (acceptor) and anti-IP1-Cryptate (donor) for 1 h, the specific FRET signals were calculated by the fluorescence ratio of the acceptor and donor emission signal (665/620 nm) collected using a modified Infinite F500 (Tecan Group Ltd). Conversion of the HTRF ratio of each sample into IP1 concentrations was performed on the basis of a standard curve to determine the linear dynamic range of the assay.

T1 sequence (P47900 whole entry): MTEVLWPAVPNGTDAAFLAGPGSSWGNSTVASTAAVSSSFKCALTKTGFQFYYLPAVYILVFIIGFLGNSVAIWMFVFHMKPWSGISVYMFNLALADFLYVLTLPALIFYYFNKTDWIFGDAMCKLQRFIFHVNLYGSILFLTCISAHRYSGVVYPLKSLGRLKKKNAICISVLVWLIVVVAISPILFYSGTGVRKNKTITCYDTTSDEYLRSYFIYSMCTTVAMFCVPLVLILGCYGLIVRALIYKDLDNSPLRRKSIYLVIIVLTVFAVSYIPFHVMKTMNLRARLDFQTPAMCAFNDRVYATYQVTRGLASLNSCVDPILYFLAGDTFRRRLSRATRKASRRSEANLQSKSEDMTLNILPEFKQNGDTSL

SMILES | G protein signaling, Ligand-modulated BRET (% of maximum MRS2179 mean value) ([1]; [Ligand] 1.00E-04 M) | G protein signaling, Ligand-modulated BRET (% of maximum MRS2179 mean value) ([1]; [Ligand] 1.00E-05 M) | G protein signaling, Ligand-modulated BRET (% of maximum MRS2179 mean value) ([1]; [Ligand] 1.00E-06 M) | G protein signaling, Ligand-modulated BRET (% of maximum MRS2179 mean value) ([1]; [Ligand] 1.00E-07 M) | G protein signaling, Ligand-modulated BRET (% of maximum MRS2179 mean value) ([1]; [Ligand] 1.00E-08 M) | G protein signaling, Ligand-modulated BRET (% of maximum MRS2179 mean value) ([1]; [Ligand] 1.00E-09 M) | G protein signaling, Ligand-modulated BRET (% of maximum MRS2179 mean value) ([1]; [Ligand] 1.00E-10 M) | EC50 ([1]; 1 min) [µM] | pEC50 ± s.e.m. ([1]; 1 min) | Emax ± s.e.m. ([1]; 1 min) | Behaviour on P2Y1-R-dependent constitutive Gαq protein activation ([1]; result in words) | ADP-induced change of Gαq/Gγ2 BRET signal ([1]; ADP 10 μM, 1 min, result in words) | ADP-modulated BRET ([1]; P2Y1-R, ADP 10 μM, 1 min, individual experiments) | Effect on IP1 production [2] | Effect on IP1 levels [3]
CNc1nc(Cl)nc2c1ncn2[C@H]1CC(OP(=O)(O)O)[C@]2(COP(=O)(O)O)C[C@H]12 (stereo in doubt) [MRS2279] | 129.138 % of maximum MRS2179 mean value and 120.304 % of maximum MRS2179 mean value and 127.2 % of maximum MRS2179 mean value and 111.359 % of maximum MRS2179 mean value and 120.336 % of maximum MRS2179 mean value and 114.718 % of maximum MRS2179 mean value | 65.0429 % of maximum MRS2179 mean value and 66.0702 % of maximum MRS2179 mean value and 71.1916 % of maximum MRS2179 mean value and 1.991 % of maximum MRS2179 mean value and 5.227 % of maximum MRS2179 mean value and 4.981 % of maximum MRS2179 mean value | 0.8906 % of maximum MRS2179 mean value and 4.044 % of maximum MRS2179 mean value and 23.8581 % of maximum MRS2179 mean value and -4.504 % of maximum MRS2179 mean value and -0.009097 % of maximum MRS2179 mean value and -7.368 % of maximum MRS2179 mean value | -9.195 % of maximum MRS2179 mean value and -17.2152 % of maximum MRS2179 mean value and -1.434 % of maximum MRS2179 mean value and -4.1872 % of maximum MRS2179 mean value and -11.6872 % of maximum MRS2179 mean value and -13.2576 % of maximum MRS2179 mean value | -19.0202 % of maximum MRS2179 mean value and -26.9343 % of maximum MRS2179 mean value and -6.222 % of maximum MRS2179 mean value and 4.642 % of maximum MRS2179 mean value and -7.159 % of maximum MRS2179 mean value and -5.465 % of maximum MRS2179 mean value | -11.1827 % of maximum MRS2179 mean value and -20.1662 % of maximum MRS2179 mean value and -5.932 % of maximum MRS2179 mean value and 1.161 % of maximum MRS2179 mean value and -4.3372 % of maximum MRS2179 mean value and -8.802 % of maximum MRS2179 mean value | -9.413 % of maximum MRS2179 mean value and -16.1844 % of maximum MRS2179 mean value and -3.46 % of maximum MRS2179 mean value and -2.408 % of maximum MRS2179 mean value and -4.624 % of maximum MRS2179 mean value and -8.503 % of maximum MRS2179 mean value | 26.4 | 4.579 ± 0.1247 | 154.3 ± 13.86 | behaved as inverse agonists |  |  |  | 
Nc1ncnc2c1ncn2[C@@H]1O[C@H](COP(=O)(O)OP(=O)(O)O)[C@@H](O)[C@H]1O [ADP, adenosine diphosphate] |  |  |  |  |  |  |  |  |  |  |  | significant but moderate decrease of the BRET signal | -0.02511 and -0.01906 and -0.00821 and -0.04045 and -0.02327 and -0.02843 | slightly but significantly potentiated | significantly increased
CNc1nc(I)nc2c1ncn2[C@H]1C[C@H](OP(=O)(O)O)[C@]2(COP(=O)(O)O)C[C@H]12 [MRS2500, 2-iodo-N6-methyl-(N)-methanocarba-2′-deoxyadenosine-3′,5′-bisphosphate] | 155.404 % of maximum MRS2179 mean value and 138.849 % of maximum MRS2179 mean value and 107.119 % of maximum MRS2179 mean value and 132.185 % of maximum MRS2179 mean value and 125.72 % of maximum MRS2179 mean value and 141.754 % of maximum MRS2179 mean value | 122.914 % of maximum MRS2179 mean value and 111.352 % of maximum MRS2179 mean value and 93.6281 % of maximum MRS2179 mean value and 124.36 % of maximum MRS2179 mean value and 97.7584 % of maximum MRS2179 mean value and 107.998 % of maximum MRS2179 mean value | 73.5711 % of maximum MRS2179 mean value and 80.459 % of maximum MRS2179 mean value and 53.1675 % of maximum MRS2179 mean value and 68.2708 % of maximum MRS2179 mean value and 52.8113 % of maximum MRS2179 mean value and 71.2103 % of maximum MRS2179 mean value | 18.6255 % of maximum MRS2179 mean value and 25.6955 % of maximum MRS2179 mean value and 14.1554 % of maximum MRS2179 mean value and 20.945 % of maximum MRS2179 mean value and 1.4 % of maximum MRS2179 mean value and 18.5955 % of maximum MRS2179 mean value | 1.081 % of maximum MRS2179 mean value and -4.947 % of maximum MRS2179 mean value and -10.1975 % of maximum MRS2179 mean value and -7.982 % of maximum MRS2179 mean value and -25.6775 % of maximum MRS2179 mean value and 3.691 % of maximum MRS2179 mean value | -4.558 % of maximum MRS2179 mean value and -14.6104 % of maximum MRS2179 mean value and -16.9372 % of maximum MRS2179 mean value and -9.323 % of maximum MRS2179 mean value and -17.5921 % of maximum MRS2179 mean value and 4.08 % of maximum MRS2179 mean value | -10.8256 % of maximum MRS2179 mean value and -10.2571 % of maximum MRS2179 mean value and -9.064 % of maximum MRS2179 mean value and -13.8903 % of maximum MRS2179 mean value and -18.6423 % of maximum MRS2179 mean value and -6.511 % of maximum MRS2179 mean value | 0.772 | 6.113 ± 0.07237 | 127.2 ± 3.892 | behaved as inverse agonists |  |  |  | 
